Data published in US12568967B2, “Compositions comprising pyridine carboxylate herbicides with synthetic auxin herbicides or auxin transport inhibitors” (priority 2018, dated 2026).

Key:
[1] = test system: Helianthus annuus (common sunflower, HELAN); test: Greenhouse postemergence trial HELAN; format: in vivo; conditions: HELAN; 140 g/ha alone
[2] = test system: Digitaria sanguinalis (large crabgrass, DIGSA); test: Greenhouse postemergence trial DIGSA; format: in vivo; conditions: for % visual injury, Obs: DIGSA, 140 g/ha alone
Experimental: (§1) Seeds of the desired test plant species were planted in a 90:10% v/v (volume/volume) mixture of PRO-MIX® BX (Premier Tech Horticulture, Quakertown, PA, USA) and PROFILE® GREENS GRADE™ (Profile Products LLC, Buffalo Grove, IL, USA) planting mixture, which typically has a pH of 5.2 to 6.2 and an organic matter content of at least 50 percent, in plastic pots with a surface area of 103.2 square centimeters (cm^2). […] The plants were grown for 7-36 days (d) in a greenhouse with an approximate 14-hour (h) photo-period which was maintained at about 23° C. during the day and 22° C. during the night. Nutrients and water were added on a regular basis and supplemental lighting was provided with overhead metal halide 1000-Watt lamps as necessary. The plants were employed for testing when they reached the second or third true leaf stage.
(§2) Emulsifiable concentrates of each of each pyridine carboxylate herbicide (Compound A or Compound B) were prepared at 100 grams acid equivalent per liter (g ae/L). The emulsifiable concentrates also included a safener, cloquintocet-mexyl, at 120 grams active ingredient per liter (g ai/L), unless otherwise noted below. An aliquot of each emulsifiable concentrate was placed in a 25 mL glass vial and diluted with an aqueous mixture of 1.25% (v/v) ACTIROB® B esterified rapeseed oil (Bayer Crop Science, Research Triangle Park, NC, USA) or MSO® Concentrate with LECI-TECH® methylated soybean oil (Loveland Products, Loveland, CO, USA) to obtain concentrated stock solutions at the highest application rate for each herbicide, based upon a 12 milliliter (mL) application volume at a rate of 187 liters per hectare (L/ha). The concentrated stock solutions were further diluted with an aqueous mixture of 1.25% v/v ACTIROB® B or MSO® Concentrate with LECI-TECH® to obtain stock solutions at reduced application rates for each herbicide. Spray solutions of the herbicide combinations (Compound A or Compound B plus synthetic auxin herbicide or auxin transport inhibitor) were prepared by adding weighed amounts or aliquots of the synthetic auxin herbicide or auxin transport inhibitor to the stock solutions of Compound A or Compound B to form 12-mL spray solutions in two-way combinations.
(§3) The spray solutions were applied to the plant material with an overhead Mandel track sprayer equipped with 8002E nozzles calibrated to deliver 187 L/ha over an application area of 0.503 square meters (m^2) at a spray height of 18 inches (43 centimeters (cm)) above the average plant canopy. Control plants were sprayed in the same manner with the solvent blank. All pyridine carboxylate herbicide (component a) application rates are given as “g ae/ha” and all synthetic auxin herbicide or auxin transport inhibitor (component b) application rates are given as “g ai/ha.”
(§4) The treated plants and control plants were placed in a greenhouse as described above and watered by sub-irrigation to prevent wash-off of the test compounds. After 20-22 d, the condition of the test plants as compared with that of the control plants was determined visually and scored on a scale of 0 to 100 percent where 0 corresponds to no injury and 100 corresponds to complete kill.

[3] = test system: Ipomoea hederacea (ivyleaf morningglory, IPOHE); test: Greenhouse postemergence trial IPOHE; format: in vivo; conditions: IPOHE; 140 g/ha alone
Experimental: as §1, §2, §3, §4

[4] = test system: Cyperus esculentus (nutsedge, CYPES); test: Greenhouse postemergence trial CYPES; format: in vivo; conditions: CYPES; 140 g/ha alone
Experimental: as §1
(§5) Emulsifiable concentrates of each of each pyridine carboxylate herbicide (Compound A or Compound B) were prepared at 100 grams acid equivalent per liter (g ae/L). The emulsifiable concentrates also included a safener, cloquintocet-mexyl, at 120 grams active ingredient per liter (g ai/L), unless otherwise noted below. An aliquot of each emulsifiable concentrate was placed in a 25 mL glass vial and diluted with an aqueous mixture of 1.25% (v/v) ACTIROB® B esterified rapeseed oil (Bayer Crop Science, Research Triangle Park, NC, USA) or MSO® Concentrate with LECI-TECH® methylated soybean oil (Loveland Products, Loveland, CO, USA) to obtain concentrated stock solutions at the highest application rate for each herbicide, based upon a 12 milliliter (mL) application volume at a rate of 187 liters per hectare (L/ha). The concentrated stock solutions were further diluted with an aqueous mixture of 1.25% v/v ACTIROB® B or MSO® Concentrate with LECI-TECH® to obtain stock solutions at reduced application rates for each herbicide. Spray solutions of the herbicide combinations (Compound A or Compound B plus synthetic auxin herbicide or auxin transport inhibitor) were prepared by adding weighed amounts or aliquots of the synthetic auxin herbicide or auxin transport inhibitor to the stock solutions of Compound A or Compound B to form 12-mL spray solutions in two-way combinations. […]
as §4

[5] = test system: Leptochloa chinensis (Chinese sprangletop, LEFCH); test: Greenhouse postemergence trial LEFCH; format: in vivo; conditions: LEFCH; 140 g/ha alone
Experimental: as §1, §5, §4

[6] = test system: Glycine max (volunteer soybean, GLXMA); test: Greenhouse postemergence trial GLXMA; format: in vivo; conditions: GLXMA; 140 g/ha alone
Experimental: as §1, §2, §3, §4

[7] = test system: Kochia scoparia (kochia, KCHSC); test: Greenhouse postemergence trial KCHSC; format: in vivo; conditions: for % visual injury, Obs: 140 g/ha alone
[8] = test system: Echinochloa crus-galli (barnyard grass, ECHCG); test: Greenhouse postemergence trial ECHCG; format: in vivo; conditions: for % visual injury, Obs: ECHCG, 140 g/ha alone
Experimental: as §1, §2, §3, §4

[9] = test system: Avena fatua (wild oat, AVEFA); test: Greenhouse postemergence trial AVEFA; format: in vivo; conditions: AVEFA; 140 g/ha alone
Experimental: as §1, §5, §4

[10] = test system: Sorghum vulgare (grain sorghum, SORVU); test: Greenhouse postemergence trial SORVU; format: in vivo; conditions: SORVU; 140 g/ha alone
Experimental: as §1, §5, §4

[11] = test system: Viola tricolor (wild pansy, VIOTR); test: Greenhouse postemergence trial VIOTR; conditions: for % visual injury, Obs: VIOTR, 140 g/ha alone;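 on all read-outs here: greenhouse plants sprayed at second to third true leaf stage, injury rated visually after 20-22 d against solvent-blank sprayed controls, 0 meaning no injury and 100 complete kill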
Experimental: as §1, §2, §3, §4

[12] = test system: Brassica napus (winter rape, BRSNW); test: Greenhouse postemergence trial BRSNW; format: in vivo; conditions: Brassica napus, post-emergence, read-out: % visual injury Obs
[13] = test system: Setaria faberi (giant foxtail, SETFA); test: Greenhouse postemergence trial SETFA; format: in vivo; conditions: for % visual injury, Obs: SETFA, 140 g/ha alone
Experimental: as §1, §2, §3, §4

[14] = test system: Cirsium arvense (Canadian thistle, CIRAR); test: Greenhouse postemergence trial CIRAR; format: in vivo; conditions: for % visual injury, Obs: 140 g/ha alone
[15] = test system: Polygonum convolvulus (wild buckwheat, POLCO); test: Greenhouse postemergence trial POLCO; format: in vivo; conditions: for % visual injury, Obs: 140 g/ha alone
[16] = test system: Lolium multiflorum (Italian ryegrass, LOLMU); test: Greenhouse postemergence trial LOLMU; format: in vivo; conditions: for % visual injury, Obs: LOLMU, 140 g/ha alone
Experimental: as §1, §2, §3, §4

[17] = test system: Abutilon theophrasti (velvetleaf, ABUTH); test: Greenhouse postemergence trial ABUTH; format: in vivo; conditions: for % visual injury, Obs: ABUTH, 140 g/ha alone
Experimental: as §1, §2, §3, §4

[18] = test system: Rumex obtusifolius (broad-leaf dock, RUMOB); test: Greenhouse postemergence trial RUMOB; format: in vivo; conditions: for % visual injury, Obs: RUMOB, 140 g/ha alone
[19] = test system: Alopecurus myosuroides (blackgrass, ALOMY); test: Greenhouse postemergence trial ALOMY; format: in vivo; conditions: ALOMY; 140 g/ha alone
Experimental: as §1, §5, §4

[20] = test system: Stellaria media (chickweed, STEME); test: Greenhouse postemergence trial STEME; format: in vivo; conditions: for % visual injury, Obs: 140 g/ha alone
[21] = test system: Oryza sativa (common rice, ORYSA); test: Greenhouse postemergence trial ORYSA; format: in vivo; conditions: diflufenzopyr 10 g/ha
Experimental: as §1
Emulsifiable concentrates of each of each pyridine carboxylate herbicide (Compound A or Compound B) were prepared at 100 grams acid equivalent per liter (g ae/L). […]
as §4

[22] = test system: Brassica napus (spring rape, BRSNN); test: Greenhouse postemergence trial BRSNN; format: in vivo; conditions: diflufenzopyr 10 g/ha
Experimental: (§6) The plants were grown for 7-36 days (d) in a greenhouse with an approximate 14-hour (h) photo-period which was maintained at about 23° C. during the day and 22° C. during the night. Nutrients and water were added on a regular basis and supplemental lighting was provided with overhead metal halide 1000-Watt lamps as necessary. The plants were employed for testing when they reached the second or third true leaf stage.
(§7) The emulsifiable concentrates also included a safener, cloquintocet-mexyl, at 120 grams active ingredient per liter (g ai/L), unless otherwise noted below.
(§8) Control plants were sprayed in the same manner with the solvent blank. All pyridine carboxylate herbicide (component a) application rates are given as “g ae/ha” and all synthetic auxin herbicide or auxin transport inhibitor (component b) application rates are given as “g ai/ha.”
as §4

[23] = test system: Veronica persica (bird's-eye speedwell, VERPE); test: Greenhouse postemergence trial VERPE; format: in vivo
[24] = test system: Sinapis arvensis (wild mustard, SINAR); test: Greenhouse postemergence trial SINAR; format: in vivo; conditions: Mutarda arvensis, post-emergence; SINAR; Halauxifen-methyl 3 g/ha; read-out: % visual injury Obs
Experimental: as §6, §7, §8, §4

[25] = test system: Cyanus segetum (cornflower, CENCY); test: Greenhouse postemergence trial CENCY; format: in vivo
[26] = test system: Capsella bursa-pastoris (shepherd's purse, CAPBP); test: Greenhouse postemergence trial CAPBP; format: in vivo
[27] = test system: Papaver rhoeas (corn poppy, PAPRH); test: Greenhouse postemergence trial PAPRH; format: in vivo
[28] = test system: Viola arvensis (field violet, VIOAR); test: Greenhouse postemergence trial VIOAR; format: in vivo
[29] = test system: Anthemis arvensis (field chamomile, ANTAR); test: Greenhouse postemergence trial ANTAR; format: in vivo
Experimental: as §1, §2, §3, §4

[30] = test system: Papaver rhoeas (corn poppy), herbicide-resistant (PAPRH-R); test: Greenhouse postemergence trial PAPRH-R; format: in vivo
[31] = test system: Matricaria chamomilla (wild chamomile, MATCH); test: Greenhouse postemergence trial MATCH; format: in vivo; conditions: Matricaria chamomilla, post-emergence; MATCH; Halauxifen-methyl 3 g/ha; read-out: % visual injury Obs;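 further: greenhouse plants sprayed at second to third true leaf stage, injury rated by eye 20-22 d later versus solvent-blank controls on 0–100 scale, 0 no injury, 100 complete kill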
[32] = test system: Salsola kali (Russian thistle, SASKR); test: Greenhouse postemergence trial SASKR; format: in vivo; conditions: Salsola kali, post-emergence; SASKR; Halauxifen-methyl 3 g/ha; read-out: % visual injury Obs;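 further: greenhouse plants sprayed at second or third true leaf stage, injury rated by eye after 20-22 d against solvent-blank controls, 0 meaning no injury, 100 complete kill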
[33] = test system: Matricaria discoidea (pineapple weed, MATMT); test: Greenhouse postemergence trial MATMT; format: in vivo
[34] = test system: Triticum aestivum (winter wheat, TRZAW); test: Greenhouse postemergence crop phytotoxicity TRZAW; format: in vivo
[35] = test system: Lamium purpureum (purple deadnettle, LAMPU); test: Greenhouse postemergence trial LAMPU
Experimental: as §6, §7, §8, §4

[36] = test system: Galium aparine (cleavers, GALAP); test: Greenhouse postemergence trial GALAP; format: in vivo; conditions: c1-3 Compound A 7.5/10/15; c4 Halauxifen-methyl 6; c5-7 A 7.5/10/15 + Halauxifen-methyl 6 g/ha
Experimental: as §1, §2, §3, §4

[37] = test system: Matricaria inodora (false chamomile, MATIN); test: Greenhouse postemergence trial MATIN; format: in vivo
[38] = test system: Hordeum vulgare (spring barley, HORVS); format: in vivo
[39] = test system: Veronica hederifolia (ivyleaf speedwell, VERHE); test: Greenhouse postemergence trial VERHE; format: in vivo
Experimental: as §1, §2, §3, §4

[40] = test system: Triticum aestivum (spring wheat, TRZAS); format: in vivo
[41] = test system: Hordeum vulgare (winter barley, HORVW); test: Greenhouse postemergence crop phytotoxicity HORVW; format: in vivo
[42] = c1-3 Compound A 7.5/10/15, c4 Halauxifen-methyl 6, c5-7 A 7.5/10/15 + Halauxifen-methyl 6 g/ha

O=C(O)c1cc(I)cc(I)c1I [2,3,5-TIBA]
% visual injury, Obs [1]: 0% | % visual injury, Obs [2]: 0% | % visual injury, Obs [3]: 0% | % visual injury, Obs [4]: 0% | % visual injury, Obs [5]: 0% | % visual injury, Obs [6]: 40% | % visual injury, Obs ([7]; KCHSC): 0% | % visual injury, Obs [8]: 0% | % visual injury, Obs [9]: 0% | % visual injury, Obs [10]: 0% | % visual injury, Obs [11]: 0% | plant injury at 140 g/ha [12]: 0% | % visual injury, Obs [13]: 0% | % visual injury, Obs ([14]; CIRAR): 0% | % visual injury, Obs ([15]; POLCO): 0% | % visual injury, Obs [16]: 0% | % visual injury, Obs [17]: 0% | % visual injury, Obs [18]: 0% | % visual injury, Obs [19]: 0% | % visual injury, Obs ([20]; STEME): 0%

C/C(=N\NC(=O)Nc1cc(F)cc(F)c1)c1ncccc1C(=O)O [Diflufenzopyr]
ORYSA Obs (% visual injury) [21]: 8% | DIGSA Obs (% visual injury) ([2]; diflufenzopyr 10 g/ha): 0% | KCHSC Obs (% visual injury) ([7]; diflufenzopyr 10 g/ha): 10% | ECHCG Obs (% visual injury) ([8]; diflufenzopyr 10 g/ha): 0% | VIOTR Obs (% visual injury) ([11]; diflufenzopyr 10 g/ha): 8% | SETFA Obs (% visual injury) ([13]; diflufenzopyr 10 g/ha): 20% | BRSNN Obs (% visual injury) [22]: 70% | CIRAR Obs (% visual injury) ([14]; diflufenzopyr 10 g/ha): 10% | POLCO Obs (% visual injury) ([15]; diflufenzopyr 10 g/ha): 5% | LOLMU Obs (% visual injury) ([16]; diflufenzopyr 10 g/ha): 8% | ABUTH Obs (% visual injury) ([17]; diflufenzopyr 10 g/ha): 38% | RUMOB Obs (% visual injury) ([18]; diflufenzopyr 10 g/ha): 8%

COC(=O)c1nc(-c2ccc(Cl)c(OC)c2F)cc(N)c1Cl [Halauxifen-methyl, halauxifen-methyl, reference compound]
pest or weed control at 3 g/ha ([23]; Veronica persica, post-emergence, VERVE, Halauxifen-methyl 3 g/ha, read-out: % visual injury Obs): 20% | % visual injury [23, 42]: 10% | pest or weed control at 3 g/ha [24]: 70% | pest or weed control at 3 g/ha ([25]; Centaurea cyanus, post-emergence, CENCY, Halauxifen-methyl 3 g/ha, read-out: % visual injury Obs): 90% | % visual injury [25, 42]: 97% | pest or weed control at 3 g/ha ([26]; Capsella bursa-pastoris, post-emergence, CAPBP, Halauxifen-methyl 3 g/ha, read-out: % visual injury Obs): 75% | % visual injury [26, 42]: 70% | pest or weed control at 3 g/ha ([27]; Papaver rhoeas, post-emergence, PAPRH, Halauxifen-methyl 3 g/ha, read-out: % visual injury Obs): 70% | % visual injury [27, 42]: 70% | pest or weed control at 3 g/ha ([28]; Viola arvensis, post-emergence, VIOAR, Halauxifen-methyl 3 g/ha, read-out: % visual injury Obs): 10% | % visual injury [28, 42]: 5% | pest or weed control at 3 g/ha ([29]; Anthemis arvensis, post-emergence, ANTAR, Halauxifen-methyl 3 g/ha, read-out: % visual injury Obs): 50% | % visual injury [29, 42]: 40% | pest or weed control at 3 g/ha ([30]; Papaver rhoeas, post-emergence, PAPRH-R, Halauxifen-methyl 3 g/ha, read-out: % visual injury Obs): 65% | % visual injury [30, 42]: 60% | pest or weed control at 3 g/ha [31]: 10% | pest or weed control at 3 g/ha [32]: 50% | pest or weed control at 3 g/ha ([33]; Matricaria discoidea, post-emergence, MATMT, Halauxifen-methyl 3 g/ha, read-out: % visual injury Obs): 0% | % visual injury [33, 42]: 65% | pest or weed control at 3 g/ha ([7]; Bassia scoparia, post-emergence, KCHSC, Halauxifen-methyl 3 g/ha, read-out: % visual injury Obs): 50% | % visual injury Obs ([34]; TRZAW, Halauxifen-methyl 3 g/ha): 0% | % visual injury (crop phytotoxicity) [34, 42]: 0% | pest or weed control at 3 g/ha ([35]; Lamium purpureum, post-emergence, read-out: % visual injury Obs): 97% | % visual injury [35, 42]: 85% | % visual injury [36]: 95% | pest or weed control at 3 g/ha ([37]; Tripleurospermum inodorum, post-emergence, MATIN, Halauxifen-methyl 3 g/ha, read-out: % visual injury Obs): 0% | % visual injury [37, 42]: 10% | pest or weed control at 3 g/ha ([11]; Viola tricolor, post-emergence, read-out: % visual injury Obs): 60% | % visual injury [11, 42]: 10% | plant injury at 3 g/ha ([12]; BRSNW, Halauxifen-methyl 3 g/ha): 30% | % visual injury Obs ([38]; HORVS, Halauxifen-methyl 3 g/ha): 0% | % visual injury (crop phytotoxicity) [38, 42]: 0% | pest or weed control at 3 g/ha ([14]; Cirsium arvense, post-emergence, CIRAR, Halauxifen-methyl 3 g/ha, read-out: % visual injury Obs): 65% | pest or weed control at 3 g/ha ([15]; Fallopia convolvulus, post-emergence, POLCO, Halauxifen-methyl 3 g/ha, read-out: % visual injury Obs): 80% | pest or weed control at 3 g/ha ([39]; Veronica hederifolia, post-emergence, VERHE, Halauxifen-methyl 3 g/ha, read-out: % visual injury Obs): 10% | % visual injury [39, 42]: 10% | % visual injury Obs ([40]; TRZAS, Halauxifen-methyl 3 g/ha): 0% | % visual injury (crop phytotoxicity) [40, 42]: 0% | % visual injury Obs ([41]; HORVW, Halauxifen-methyl 3 g/ha): 0% | % visual injury (crop phytotoxicity) [41, 42]: 0% | pest or weed control at 3 g/ha ([20]; Stellaria media, post-emergence, STEME, Halauxifen-methyl 3 g/ha, read-out: % visual injury Obs): 30% | % visual injury [20, 42]: 65%

O=C(O)c1ccccc1C(=O)Nc1cccc2ccccc12 [Naptalam]
% visual injury, Obs [1]: 0% | % visual injury, Obs [2]: 0% | % visual injury, Obs [3]: 0% | % visual injury, Obs [4]: 35% | % visual injury, Obs [5]: 0% | % visual injury, Obs [6]: 13% | % visual injury, Obs ([7]; KCHSC): 0% | % visual injury, Obs [8]: 0% | % visual injury, Obs [9]: 0% | % visual injury, Obs [10]: 0% | % visual injury, Obs [11]: 0% | plant injury at 140 g/ha [12]: 0% | % visual injury, Obs [13]: 0% | % visual injury, Obs ([14]; CIRAR): 0% | % visual injury, Obs ([15]; POLCO): 0% | % visual injury, Obs [16]: 0% | % visual injury, Obs [17]: 0% | % visual injury, Obs [18]: 0% | % visual injury, Obs [19]: 0% | % visual injury, Obs ([20]; STEME): 0%
